# Data taken from US8637657B2, “Siderophore-mediated iron uptake in bacterial infection” (priority 2008, dated 2014).
# “Also recorded” adds a separate entry of the source.
# Assays:
# HtsA = experiment: heme binding to purified HtsA (absorption spectra); design: species or system S. aureus; details: in comparison to IsdE
# Text: FIG. 10 illustrates the absorption spectra of purified IsdE, HtsA and SirA proteins in the absence of heme (A) and on exposure to heme (B);
# In liquid growth assays, no attenuation of the htsABC deletion mutant, H1665, when grown on heme as a sole iron source (data not shown) was observed.
# SbnF = target: T1, SbnF (Staphylococcus aureus, UniProt Q2G1M8); experiment: hydroxylamine trapping (hydroxamate formation) assay, SbnF; type: biochemical, S. aureus; details: 5 μM enzyme
# T1 construct: 6xHis; made in house; host or cells: E. coli BL21 (DE3)
# T1 sequence (Q2G1M8 25-616 limits assumed): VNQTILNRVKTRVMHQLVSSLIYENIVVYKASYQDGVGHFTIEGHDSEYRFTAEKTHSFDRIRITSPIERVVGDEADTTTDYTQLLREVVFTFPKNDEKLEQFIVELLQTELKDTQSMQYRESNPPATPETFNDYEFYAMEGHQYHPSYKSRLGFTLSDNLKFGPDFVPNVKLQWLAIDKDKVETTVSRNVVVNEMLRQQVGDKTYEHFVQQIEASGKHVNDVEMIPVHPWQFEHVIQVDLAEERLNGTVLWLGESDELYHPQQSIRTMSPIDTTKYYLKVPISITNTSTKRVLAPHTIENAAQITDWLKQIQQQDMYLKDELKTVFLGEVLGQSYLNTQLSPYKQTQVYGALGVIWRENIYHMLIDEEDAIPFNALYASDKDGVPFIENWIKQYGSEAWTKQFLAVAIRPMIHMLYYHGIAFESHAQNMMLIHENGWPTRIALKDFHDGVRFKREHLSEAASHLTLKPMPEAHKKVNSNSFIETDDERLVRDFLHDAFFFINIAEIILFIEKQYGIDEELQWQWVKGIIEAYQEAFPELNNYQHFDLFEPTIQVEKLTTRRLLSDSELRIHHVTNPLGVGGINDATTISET
# Method: All reactions were performed in 300 μL volumes and the following were common to each reaction: 2.25 mM ATP, 15 mM MgCl2, 150 mM hydroxylamine, and 50 mM HEPES pH 7.4. […] Similarly, to assess which enzyme utilized α-KG as a substrate, 5 μM of SbnC, SbnE, or SbnF were incubated with 3 mM α-KG and the common reaction components. […] This reaction was then heat treated at 70° C. to deactivate SbnE and the reaction was then centrifuged at 14 500 rpm for 10 minutes to pellet precipitated enzyme. The supernatant which now contains the citryl-Dae intermediate was incubated with fresh 5 μM SbnF or SbnC, 2.25 mM ATP, and 150 mM hydroxylamine. To assess the potential recognition of citryl-Dap as a substrate for SbnF or SbnC, this intermediate was formed as described above except that Dae was replaced with 50 mM Dap instead. For each reaction, a duplicate control reaction was prepared in which the enzyme was previously inactivated by heating at 100° C. for 10 minutes. All reactions described above were incubated at room temperature in the dark for 1 hour before addition of 300 μL stopping solution which consisted of 10% (w/v) FeCl3 and 3.3% (w/v) trichloroacetic acid in 0.7 M HCl. Reactions were centrifuged at 20 000×g for 5 minutes to remove precipitate and the formation of ferric hydroxamate was detected spectrophotometrically at 540 nm. Relative absorbance values reported in this study were calculated by subtracting the absorbance of the control (boiled enzyme) reactions from the absorbance of experimental reactions.
# SbnE = target: T2, SbnE (Staphylococcus aureus, UniProt Q2G1M9); experiment: hydroxylamine trapping (hydroxamate formation) assay, SbnE; type: biochemical, S. aureus; details: 5 μM enzyme, 3 mM substrate
# T2 construct: 6xHis; made in house; host or cells: E. coli BL21 (DE3)
# T2 sequence (Q2G1M9 whole entry): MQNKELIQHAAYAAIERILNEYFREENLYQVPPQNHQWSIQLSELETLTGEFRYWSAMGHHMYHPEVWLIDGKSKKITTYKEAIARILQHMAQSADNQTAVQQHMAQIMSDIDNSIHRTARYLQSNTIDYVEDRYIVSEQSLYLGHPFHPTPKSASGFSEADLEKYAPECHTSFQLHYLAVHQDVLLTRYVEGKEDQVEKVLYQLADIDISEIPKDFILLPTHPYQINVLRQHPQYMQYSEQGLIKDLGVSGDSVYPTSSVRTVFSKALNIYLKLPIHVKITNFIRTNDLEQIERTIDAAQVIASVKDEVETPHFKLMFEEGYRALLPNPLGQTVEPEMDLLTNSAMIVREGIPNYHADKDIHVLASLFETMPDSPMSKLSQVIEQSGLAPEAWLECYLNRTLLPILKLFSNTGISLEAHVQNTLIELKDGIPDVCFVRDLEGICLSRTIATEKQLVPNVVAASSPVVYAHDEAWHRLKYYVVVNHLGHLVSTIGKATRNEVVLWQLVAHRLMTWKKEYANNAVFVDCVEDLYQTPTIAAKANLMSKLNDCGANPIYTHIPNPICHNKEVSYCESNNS
# Method: All reactions were performed in 300 μL volumes and the following were common to each reaction: 2.25 mM ATP, 15 mM MgCl2, 150 mM hydroxylamine, and 50 mM HEPES pH 7.4. […] The supernatant which now contains the citryl-Dae intermediate was incubated with fresh 5 μM SbnF or SbnC, 2.25 mM ATP, and 150 mM hydroxylamine. To assess the potential recognition of citryl-Dap as a substrate for SbnF or SbnC, this intermediate was formed as described above except that Dae was replaced with 50 mM Dap instead. For each reaction, a duplicate control reaction was prepared in which the enzyme was previously inactivated by heating at 100° C. for 10 minutes. All reactions described above were incubated at room temperature in the dark for 1 hour before addition of 300 μL stopping solution which consisted of 10% (w/v) FeCl3 and 3.3% (w/v) trichloroacetic acid in 0.7 M HCl. Reactions were centrifuged at 20 000×g for 5 minutes to remove precipitate and the formation of ferric hydroxamate was detected spectrophotometrically at 540 nm. Relative absorbance values reported in this study were calculated by subtracting the absorbance of the control (boiled enzyme) reactions from the absorbance of experimental reactions.
# Essentially, this assay is used to monitor the specific activity of a synthetase towards a particular carboxylic acid.
# S. aureus SbnB mutant = type: cell-based; details: compound added to growth media
# Method: (§1) Using SbnA and SbnB mutants in growth culture assays, compounds were added to the growth media and tested for the ability to overcome the iron-restricted phenotype.
# S. aureus SbnA mutant = experiment: growth culture assay, compounds added to overcome iron-restricted growth defect of SbnA mutant; type: cell-based; details: compound added to growth media; data not shown
# Method: as §1
# [1] = chrome azurol S (CAS) assay of iron chelating / siderophore activity; details: SbnE reaction product
# Text: Strains of S. aureus containing complete sbn operon deletions (i.e. deleted for all of sbnA through sbnI genes) were constructed. In S. aureus Newman background, the sbn deletion strain was called H1331 whereas in RN6390 background, it was called H1324. […] Supplementation of serum growth media with iron obviated the growth defect of H1331 (FIG. 1, inset), and suppressed siderophore production in both Newman and H1331 (FIG. 2). […] To ensure that this was not due to a strain-specific phenomenon, all experiments described above were repeated using instead the RN6390 genetic background (i.e. RN6390 vs. H1324). Equivalent results were obtained (data not shown).
# To measure levels of siderophore activity, chrome azurol S (CAS) shuttle solution was prepared as described. In the case of in vitro synthesized staphyloferrin B, 50 μL of the reaction mixture were removed and diluted in 450 μL of deionized water followed by 500 μL of CAS shuttle solution in a 1 ml spectrophotometer cuvette. The mixture was then incubated in the dark for 45 minutes. Siderophore quantification and absorbance readings were performed as described (Beasley et al., 2009).
# S. aureus = experiment: promotion of iron-starved growth of S. aureus; type: cell-based; details: SbnE reaction product; data not shown
# Method: Siderophore plate bioassays were performed as described (Beasley et al., 2009). Growth promotion, as measured by the diameter of the growth halo around each disk, was determined after 36 h incubation at 37° C.
# wildtype S. aureus = experiment: disc growth assay with cell-free synthesized staphyloferrin A, wildtype; type: cell-based; details: paper disk on agar plate, 37° C. for 24 hours
# Method: (§2) Growth radius was measured around the disc after incubation of plates at 37° C. for 24 hours.
# Hts mutant = experiment: disc growth assay with cell-free synthesized staphyloferrin A, Hts mutant; type: cell-based, S. aureus; details: paper disk on agar plate, 37° C. for 24 hours
# Method: as §2
# SirA mutant = experiment: disc growth assay with cell-free synthesized staphyloferrin A, SirA mutant; type: cell-based, S. aureus; details: paper disk on agar plate, 37° C. for 24 hours
# Method: as §2
# HtsSir mutant = experiment: disc growth assay with cell-free synthesized staphyloferrin A, HtsSir mutant; type: cell-based, S. aureus; details: paper disk on agar plate, 37° C. for 24 hours
# Method: as §2
# SbnC = target: T3, SbnC (Staphylococcus aureus, UniProt Q2G1N1); experiment: hydroxylamine trapping (hydroxamate formation) assay, SbnC; type: biochemical, S. aureus; details: 5 μM enzyme, 3 mM substrate
# T3 construct: 6xHis; made in house; host or cells: E. coli BL21 (DE3)
# T3 sequence (Q2G1N1 1-584): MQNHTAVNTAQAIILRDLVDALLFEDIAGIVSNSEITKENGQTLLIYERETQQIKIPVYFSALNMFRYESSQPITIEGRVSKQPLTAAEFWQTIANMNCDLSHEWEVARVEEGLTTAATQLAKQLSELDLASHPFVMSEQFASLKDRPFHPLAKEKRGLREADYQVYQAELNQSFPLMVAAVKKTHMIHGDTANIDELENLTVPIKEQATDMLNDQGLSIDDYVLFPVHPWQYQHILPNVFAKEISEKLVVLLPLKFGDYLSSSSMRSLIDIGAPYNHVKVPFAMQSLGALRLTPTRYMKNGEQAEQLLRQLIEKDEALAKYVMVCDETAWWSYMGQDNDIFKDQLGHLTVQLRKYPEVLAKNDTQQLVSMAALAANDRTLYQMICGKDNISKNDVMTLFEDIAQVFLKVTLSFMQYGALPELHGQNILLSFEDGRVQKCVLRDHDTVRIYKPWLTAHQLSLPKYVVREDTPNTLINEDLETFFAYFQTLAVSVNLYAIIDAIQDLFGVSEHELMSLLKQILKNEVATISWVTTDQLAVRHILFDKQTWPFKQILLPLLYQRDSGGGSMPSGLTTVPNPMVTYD
# Method: To assess the potential recognition of citryl-Dap as a substrate for SbnF or SbnC, this intermediate was formed as described above except that Dae was replaced with 50 mM Dap instead. For each reaction, a duplicate control reaction was prepared in which the enzyme was previously inactivated by heating at 100° C. for 10 minutes. All reactions described above were incubated at room temperature in the dark for 1 hour before addition of 300 μL stopping solution which consisted of 10% (w/v) FeCl3 and 3.3% (w/v) trichloroacetic acid in 0.7 M HCl. Reactions were centrifuged at 20 000×g for 5 minutes to remove precipitate and the formation of ferric hydroxamate was detected spectrophotometrically at 540 nm. Relative absorbance values reported in this study were calculated by subtracting the absorbance of the control (boiled enzyme) reactions from the absorbance of experimental reactions.
# [2] = system: siderophore-deficient S. aureus (ΔsfaΔsbn); experiment: iron-starved growth of siderophore-deficient S. aureus with in vitro synthesized staphyloferrin B; type: cell-based; details: enzymatic reaction material from complete reactions, increasing amounts
# Method: Bacteria were cultured for 12 hours in TMS broth then 12 hours in TMS broth containing 100 μM 2,2′-dipyridyl (Sigma-Aldrich). Cells were washed twice in saline, and diluted 1:100 into 60% horse serum (Sigma-Aldrich)—40% TMS broth. For iron-replete media, 50 μM FeCl3 was included. Cultures were grown under constant, medium amplitude shaking in a Bioscreen C machine (Growth Curves, USA). Optical density was measured at 600 nm every 30 min. However, for clarity of growth curve figures, data are shown only at 2-hour intervals.
# This staphyloferrin B-dependent growth promotion was mediated by the ABC transporter SirABC (FIG. 14B), which is encoded by the sirABC operon divergently transcribed from the sbn operon (FIG. 13A).
smiles,measurement,setting,value
C=CC1=C(C)c2cc3[n-]c(cc4[n-]c(cc5nc(cc1n2)C(C)=C5C=C)c(C)c4CCC(=O)O)c(CCC(=O)O)c3C.[Fe+2] [heme],heme association with purified HtsA,HtsA,little to no heme would associate
O=C(O)CC(O)(CC(=O)O)C(=O)O [citrate],activity of SbnF towards carboxylic acid substrate,SbnF,small level of activity
same,activity of SbnE towards carboxylic acid substrate,SbnE,high level of specific activity
O=C(O)[C@@H]1CCCN1 [proline],overcoming the iron-restricted growth defect of the SbnB mutant,S. aureus SbnB mutant,unable to overcome
NCCNC(=O)CC(O)(CC(=O)O)C(=O)O (stereo not drawn) [citryl-Dae],activity of SbnF towards carboxylic acid substrate,SbnF,high levels of activity
"NCC(N)C(=O)O (stereo not drawn) [2,3-diamonpropionate, 2,3-diaminopropionate]",overcoming the iron-restricted growth defect of the SbnA mutant,S. aureus SbnA mutant,can be overcome
same,overcoming the iron-restricted growth defect of the SbnB mutant,S. aureus SbnB mutant,can be overcome
NC(CNC(=O)CC(O)(CC(=O)O)C(=O)O)C(=O)O (stereo not drawn) [β-citryl-Dap intermediate],activity of SbnF towards carboxylic acid substrate,SbnF,did not react
same,reaction with CAS reagent,[1],reacted strongly
same,promotion of iron-starved growth of S. aureus,S. aureus,unable to promote
"O=C(O)CC(O)(CC(=O)NCCC[C@@H](NC(=O)CC(O)(CC(=O)O)C(=O)O)C(=O)O)C(=O)O (stereo partly drawn) [Staphyloferrin A, staphyloferrin A]",growth promotion of wildtype S. aureus,wildtype S. aureus,promoted growth
same,growth promotion of Hts mutant,Hts mutant,did not promote growth
same,growth promotion of SirA mutant,SirA mutant,promoted growth
same,growth promotion of HtsSir mutant,HtsSir mutant,did not promote growth
"O=C(O)CCC(=O)C(=O)O [α-KG, α-ketoglutarate]",activity of SbnF towards carboxylic acid substrate,SbnF,not
same,activity of SbnC towards carboxylic acid substrate,SbnC,activates
same,activity of SbnE towards carboxylic acid substrate,SbnE,not
N[C@@H](CNC(=O)C[C@@](O)(CC(=O)NCCNC(=O)CCC(=O)C(=O)O)C(=O)O)C(=O)O [staphyloferrin B],promotion of iron-starved growth of siderophore-deficient S. aureus (ΔsfaΔsbn),[2],readily promote the iron-starved growth; also recorded: reaching levels comparable to growth in the presence of iron
